Data published in PMC6476959, “Novel 3,4-Dihydroisocoumarins Inhibit Human P-gp and BCRP in Multidrug Resistant Tumors and Demonstrate Substrate Inhibition of Yeast Pdr5” (Frontiers in Pharmacology, 2019).
Entries after “also recorded” stand apart in the source; their conditions may differ.

Key:
[1] = target: T1, Pdr5 (Saccharomyces cerevisiae, UniProt P33302); experiment: Pdr5 transport assay (R6G) in plasma membrane preparations; type: biochemical; set-up: R6G transport activity of Pdr5 WT inhibited to (initial screen): dose or concentration left out as unconfirmed; settings: for R6G transport activity of Pdr5 WT inhibited to (initial screen): relative to Pdr5 WT without compound
T1 construct: effect on (A) the transport activity of Pdr5 WT and (B) their effect on the ATPase activity; made in house; host or cells: S. cerevisiae YRE1001 (pdr1-3 background), isolated plasma membranes
Experimental: (§1) Saccharomyces cerevisiae cells expressing Pdr5 WT or the E1036Q (EQ) mutant were cultured to an OD600 of 1.5 in YPD-media at 25°C. The nitrogen source was replenished by addition of a 10th volume of 5x YP (50 g/l yeast extract, 100 g/l peptone). The cells were grown to an OD of 3.5 and harvested (5000 ×g at 4°C for 15 min). The isolation of Pdr5 containing PMs was performed as described ([Kolaczkowski et al., 1996]; [Ernst et al., 2008]).
Active transport of R6G was measured according to the protocol developed by [Kolaczkowski et al. (1996)], using a Tecan Infinite 200 pro reader (Tecan Group AG, Männedorf, Switzerland). 6 μg of the isolated PM containing Pdr5 were resuspended in 200 μl of the transport buffer (50 mM HEPES, pH 7.0, 5 mM MgCl2, 10 mM NaN3, and 150 nM R6G) and incubated in a black 96-well plate at 30°C. 5 μl of the test compound were added at the indicated concentrations. Active transport was initiated by the addition of 10 μl 200 mM ATP and fluorescence intensity was recorded in 15 s-intervals for 20 min (excitation wavelength at 524 nm, emission wavelength at 558 nm, number of flashes 30, integration time 2000 μs). IC50 determination was performed with a serial dilution of the test compounds.

[2] = system: A549 cells; experiment: CellTiter-Glo cell viability assay (cytotoxicity), A549; type: cell-based, human; settings: for IC50: Homo sapiens, A549, 48 h, mean ± SEM
Experimental: The human lung adenocarcinoma cell line A549 was cultured in DMEM medium supplemented with 10% fetal bovine serum (FBS), 100 U/mL penicillin and 100 μg/mL streptomycin. P-gp-expressing human colon adenocarcinoma cells HCT-15 were cultured in RPMI 1640 medium supplemented with 10% FBS, 100 U/mL penicillin and 100 μg/mL streptomycin. BCRP-expressing MCF-7/MX human breast adenocarcinoma cells were cultured in DMEM medium supplemented with 10% FBS, 100 U/mL penicillin and 100 μg/mL streptomycin. MRP1-expressing H69AR human small cell lung cancer cells were cultured in RPMI 1640 medium (ATCC modification) supplemented with 20% FBS, 100 U/mL penicillin and 100 μg/mL streptomycin. All cancer cell lines employed have been systematically characterized regarding their respective ABC transporter expression profile ([Sachs et al., 2019]).
(§2) Cytotoxic activity of test compounds was analyzed after 48 h using the CellTiter-Glo Luminescent Cell Viability Assay published previously ([Weber et al., 2017]) in 384-well plates with the following cell densities: A549, MCF-7/MX: 2 × 10^3 cells/well; HCT-15: 3 × 10^3 cells/well; H69AR: 5 × 10^3 cells/well. Pipetting was conducted with the CyBi-Well 96-channel simultaneous pipettor (Analytik Jena AG, Jena, Germany). For generation of dose-response curves and calculation of IC50 values, the four-parameter logistic model was applied.

[3] = target: T1, Pdr5; experiment: Pdr5 ATPase assay (oligomycin-sensitive) in plasma membrane preparations; type: biochemical; settings: highest concentrations (10 mM), in comparison to Pdr5 WT in the absence of any compound
Experimental: as §1
Oligomycin (OM)-sensitive ATPase activity was measured from 0.8 μg PM containing Pdr5 incubated with 2 mM ATP, 5 mM MgCl2 in 270 mM TRIS-glycine buffer (pH 9.5) and 2.5 μl of the test compounds or DMSO as a control in a total volume of 100 μl. To reduce the background activities, 0.2 mM ammonium molybdate, 10 mM NaN3 and 50 mM KNO3, respectively, were added ([Dufour et al., 1988]; [Goffeau and Dufour, 1988]). In a second assay, OM (20 μg/ml) was added to an otherwise identical setup. After incubation at 30°C for 20 min, the reaction was stopped by adding 25 μl of the reaction to 175 μl 40 mM H2SO4. The amount of released inorganic phosphate was determined by a colometric assay in 96-well plates ([Goffeau and Dufour, 1988]; [Decottignies et al., 1994]; [Wada et al., 2002]). The difference of both assays ( ± OM) corresponds to the specific ATPase activity of Pdr5 ([Ernst et al., 2008]).

[4] = system: BCRP-expressing MCF-7/MX cells; experiment: Sensitization of MCF-7/MX cells to mitoxantrone (co-treatment, cell viability); type: cell-based, human; settings: for Fold change of mitoxantrone IC50: IC50 (drug alone)/IC50 (drug with modulator)
Experimental: as §2
(§3) The ability of identified inhibitors of P-gp and BCRP to sensitize HCT-15 or MCF-7/MX cells to chemotherapy was analyzed by co-treatment with test compounds and doxorubicin or mitoxantrone, respectively. Cells were incubated with a serial dilution of the chemotherapeutic drug alone or in combination with fixed concentrations of the test compounds or positive controls (2.5 μM PSC833 and 1 μM Ko143, respectively). Fold change of drug IC50 was calculated with the formula IC50 (drug alone)/IC50 (drug with modulator).

[5] = system: P-gp expressing HCT-15 cells; experiment: Sensitization of HCT-15 cells to doxorubicin (co-treatment, cell viability); type: cell-based, human; settings: for Fold change of doxorubicin IC50: IC50 (drug alone)/IC50 (drug with modulator)
Experimental: as §2, §3

[6] = system: S. cerevisiae strain expressing Pdr5 WT; experiment: Liquid drug assay, yeast strain expressing Pdr5 WT; type: cell-based, Saccharomyces cerevisiae; settings: serial dilutions, 48 h, 30°C, OD600
Experimental: (§4) The following S. cerevisiae yeast strain was used: YRE1001 (MATa ura3-52 trp1-1 leu2-3,112 his3-11,15 ade2-1 pdr1-3 pdr5pdr5promΔ::TRP1). S. cerevisiae was cultured in YPD medium (10 g/L yeast extract, 20 g/L peptone, 2% glucose) at 30°C and 200 rpm. The yeast strain has been described previously ([Ernst et al., 2008]; [Gupta et al., 2014]). Based on these studies it is evident that Pdr5 localizes to the PM and is present in approximately 10% of the overall membrane protein content of the PM.
(§5) The liquid drug assay was carried out in sterile 96-well plates. 50 μl of yeast cell culture at an OD600 of 0.15 were mixed with 193.75 μl YPD and 6.25 μl of the test compound or DMSO as a negative control. To distinguish between cytotoxic compounds and those which inhibit Pdr5 WT specifically, the Pdr5 substrate ketoconazole was added only to cultures expressing wild-type Pdr5 in a final concentration of 1 μg/ml. At this concentration, inhibition of Pdr5 would result in ketoconazole-mediated cell death. After 48 h at 30°C the growth was measured with an ELISA plate reader (BioRad, Hercules, CA, United States) at 595 nm.

[7] = system: S. cerevisiae strain expressing Pdr5 EQ; experiment: Liquid drug assay, yeast strain expressing Pdr5 EQ mutant; type: cell-based, Saccharomyces cerevisiae; settings: serial dilutions, 48 h, 30°C, OD600
Experimental: as §4, §5

T1 sequence (P33302 whole entry): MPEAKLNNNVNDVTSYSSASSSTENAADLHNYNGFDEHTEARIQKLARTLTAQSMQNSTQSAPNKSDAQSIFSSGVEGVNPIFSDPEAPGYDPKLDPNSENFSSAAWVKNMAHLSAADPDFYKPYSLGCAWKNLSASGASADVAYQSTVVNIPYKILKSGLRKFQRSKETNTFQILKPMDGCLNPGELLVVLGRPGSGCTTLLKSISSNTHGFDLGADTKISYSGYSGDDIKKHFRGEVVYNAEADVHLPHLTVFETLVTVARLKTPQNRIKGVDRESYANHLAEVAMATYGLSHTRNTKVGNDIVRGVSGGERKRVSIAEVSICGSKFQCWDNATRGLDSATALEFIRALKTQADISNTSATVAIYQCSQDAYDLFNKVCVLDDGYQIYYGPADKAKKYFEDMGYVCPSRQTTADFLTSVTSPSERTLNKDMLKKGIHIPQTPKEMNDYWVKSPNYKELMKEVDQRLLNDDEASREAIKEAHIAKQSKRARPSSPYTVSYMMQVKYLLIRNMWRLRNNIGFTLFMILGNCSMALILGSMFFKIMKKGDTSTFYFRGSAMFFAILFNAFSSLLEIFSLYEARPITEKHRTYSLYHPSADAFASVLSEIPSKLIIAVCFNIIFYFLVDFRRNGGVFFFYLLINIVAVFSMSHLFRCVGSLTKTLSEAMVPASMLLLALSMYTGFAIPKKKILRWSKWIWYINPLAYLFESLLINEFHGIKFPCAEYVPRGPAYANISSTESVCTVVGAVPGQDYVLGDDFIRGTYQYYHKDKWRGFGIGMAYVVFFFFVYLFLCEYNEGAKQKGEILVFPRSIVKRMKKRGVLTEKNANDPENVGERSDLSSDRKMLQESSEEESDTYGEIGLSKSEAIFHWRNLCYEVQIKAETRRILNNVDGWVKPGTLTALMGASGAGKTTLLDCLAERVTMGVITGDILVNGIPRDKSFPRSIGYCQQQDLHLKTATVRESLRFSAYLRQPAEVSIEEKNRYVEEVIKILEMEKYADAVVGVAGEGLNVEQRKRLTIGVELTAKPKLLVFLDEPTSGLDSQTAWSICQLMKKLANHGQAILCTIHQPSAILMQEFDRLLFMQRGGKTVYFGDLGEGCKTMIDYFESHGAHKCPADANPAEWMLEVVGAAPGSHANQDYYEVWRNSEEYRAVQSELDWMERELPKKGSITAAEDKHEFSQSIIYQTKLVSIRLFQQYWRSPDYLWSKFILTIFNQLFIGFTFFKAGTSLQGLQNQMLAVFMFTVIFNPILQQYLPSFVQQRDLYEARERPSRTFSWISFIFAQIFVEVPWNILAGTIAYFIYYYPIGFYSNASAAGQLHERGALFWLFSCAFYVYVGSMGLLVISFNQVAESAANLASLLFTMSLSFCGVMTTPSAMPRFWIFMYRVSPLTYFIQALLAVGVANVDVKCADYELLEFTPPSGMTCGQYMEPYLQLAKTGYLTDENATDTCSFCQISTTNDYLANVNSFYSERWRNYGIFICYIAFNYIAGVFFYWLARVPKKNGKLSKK

SMILES | R6G transport activity of Pdr5 WT inhibited to (initial screen) ([1]; listed as 4) | R6G transport activity of Pdr5 WT inhibited to (initial screen) ([1]; listed as angelicoin B (4)) | IC50 [2] [µM] | ATPase activity of Pdr5 WT inhibited to (initial screen) ([3]; listed as 4) | ATPase activity of Pdr5 WT inhibited to (initial screen) ([3]; listed as angelicoin (4)) | ATPase activity of Pdr5 WT inhibited to (initial screen) ([3]; listed as angelicoin B (4)) | Sensitization of MCF-7/MX cells to mitoxantrone (in words) [4] | Fold change of mitoxantrone IC50 ([4]; +10 μM of the modulator) | Fold change of mitoxantrone IC50 ([4]; +20 μM of the modulator) | Fold change of mitoxantrone IC50 ([4]; +50 μM of the modulator) | R6G transport activity of Pdr5 WT inhibited to (initial screen) [1] | Sensitization of HCT-15 cells to doxorubicin (in words) [5] | Fold change of doxorubicin IC50 ([5]; +20 μM of the modulator) | Fold change of doxorubicin IC50 ([5]; +50 μM of the modulator) | ATPase activity of Pdr5 WT inhibited to (initial screen) [3] | IC50 [1] [µM] | Effect on growth of yeast strain expressing Pdr5 WT [6] | Effect on growth of yeast strain expressing Pdr5 EQ mutant [7] | fold lower IC50 value than compound 16 ([2]; A549 cells)
COc1cc(O)c2c(c1)C[C@H](C)OC2=O [Angelicoin B (4), angelicoin B] | no effect | did not interfere with Pdr5-mediated R6G transport | > 100 | nearly no effect | no effect | no inhibitory effect | – | – | – | – | – | – | – | – | – | – | – | – | –
COc1cc(O)c2c(c1)CCOC2=O [Compound 14] | – | – | > 100 | – | – | – | did not have a significant influence | 1.01 | 0.77 | 0.78 | did not interfere with Pdr5-mediated R6G transport; also recorded: no effect | did not sensitize the cells to doxorubicin | 0.89 | 0.80 | nearly no effect; also recorded: no inhibitory effect | – | – | – | –
CCCCCC1Cc2cc(OC)cc(O)c2C(=O)O1 (stereo not drawn) [Compound 16] | – | – | 78.6 ± 2.2 | – | – | – | – | 0.93 | 3.70 | 5.6 | inhibit the transport of R6G completely; also recorded: inhibit the transport activity of Pdr5 WT completely | – | 0.98 | 3.7 | – | 15.1 ± 2.1 | – | – | –
CCCCCC1Cc2cc(OC)cc(OC)c2C(=O)O1 (stereo not drawn) [Compound 16a] | – | – | 53.6 ± 5.6 | – | – | – | – | – | – | – | inhibit the transport of R6G completely; also recorded: inhibit the transport activity of Pdr5 WT completely | – | – | – | – | 14.6 ± 3.9 | no effect on the wild-type strain | inhibited the growth of the mutant strain slightly at the highest tested concentration | about 1.5 fold
